Measured values as given in PubChem BioAssay AID248 (DTP/NCI, 2004).
Values joined by “and” are separate entries in the source; they are usually repeats but may differ in a detail not shown here. Identical values can stand only once. Inconclusive results and toxic doses are left out. No stated cut-off is given here; in the data, active means T/C of 150% or more; inactive means T/C below 125%.

Tested on: L1210 leukemia ip in BDF1 mice, survival T/C
Experiment: NCI In Vivo Anticancer Drug Screen. Data for tumor model L1210 Leukemia (intraperitoneal) in B6D2F1 (BDF1) mice
Settings: endpoint: mean survival time, higher = longer survival
Summary of the method: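 Antitumor effect is assessed in tumor-bearing animals. Survival in the compound arm is compared with a vehicle-dosed control arm and expressed as their quotient.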

[1] = dose: 6.25 mg/kg/injection, schedule: Q01DX009 (ip), vehicle: saline
[2] = dose: 12.5 mg/kg/injection, schedule: Q04DX003 (ip), vehicle: saline
[3] = dose: 75.0 mg/kg/injection, schedule: Q04DX003 (ip), vehicle: saline
[4] = dose: 75.0 mg/kg/injection, schedule: Q01DX001 (ip), vehicle: saline
[5] = dose: 100.0 mg/kg/injection, schedule: Q04DX003 (ip), vehicle: saline
[6] = dose: 100.0 mg/kg/injection, schedule: Q04DX003 (ip), vehicle: Klucel (hydroxypropylcellulose) (HPC)
[7] = dose: 200.0 mg/kg/injection, schedule: Q04DX003 (ip), vehicle: Klucel (hydroxypropylcellulose) (HPC)
[8] = dose: 150.0 mg/kg/injection, schedule: Q01DX001 (ip), vehicle: saline
[9] = dose: 100.0 mg/kg/injection, schedule: Q01DX009 (ip), vehicle: Klucel (hydroxypropylcellulose) (HPC)
[10] = dose: 200.0 mg/kg/injection, schedule: Q01DX009 (ip), vehicle: Klucel (hydroxypropylcellulose) (HPC)
[11] = dose: 400.0 mg/kg/injection, schedule: Q04DX003 (ip), vehicle: Klucel (hydroxypropylcellulose) (HPC)
[12] = dose: 100.0 mg/kg/injection, schedule: Q01DX009 (ip), vehicle: saline with Tween-80
[13] = dose: 200.0 mg/kg/injection, schedule: Q01DX009 (ip), vehicle: saline with Tween-80
[14] = dose: 400.0 mg/kg/injection, schedule: Q01DX009 (ip), vehicle: saline with Tween-80

Measured: T/C

Cc1ccc2c3nc4ccccc4c-3csc2c1
inactive: [1] 103 % of control | dose: 12.5 mg/kg/injection, schedule: Q01DX009 (ip), vehicle: saline 108 % of control and 103 % of control | [2] 93 % of control and 92 % of control | dose: 25.0 mg/kg/injection, schedule: Q01DX009 (ip), vehicle: saline 98 % of control and 93 % of control | dose: 25.0 mg/kg/injection, schedule: Q04DX003 (ip), vehicle: saline 93 % of control and 90 % of control | dose: 35.0 mg/kg/injection, schedule: Q01DX009 (ip), vehicle: saline 101 % of control and 86 % of control | dose: 50.0 mg/kg/injection, schedule: Q04DX003 (ip), vehicle: saline 87 % of control | dose: 55.0 mg/kg/injection, schedule: Q01DX009 (ip), vehicle: saline 93 % of control and 92 % of control

O=Cc1[nH]c(=S)[nH]c(=O)c1Cc1ccc2ccccc2c1
inactive: dose: 100.0 mg/kg/injection, schedule: Q01DX001 (ip), vehicle: saline with Tween-80 104 % of control | dose: 200.0 mg/kg/injection, schedule: Q01DX001 (ip), vehicle: saline with Tween-80 104 % of control

O=C(O)C1OC1C(=O)O (stereo not drawn)
inactive: dose: 75.0 mg/kg/injection, schedule: Q01DX009 (ip), vehicle: saline with Tween-80 101 % of control | [3] 100 % of control | dose: 150.0 mg/kg/injection, schedule: Q01DX009 (ip), vehicle: saline with Tween-80 103 % of control | dose: 150.0 mg/kg/injection, schedule: Q04DX003 (ip), vehicle: saline 98 % of control | dose: 300.0 mg/kg/injection, schedule: Q01DX009 (ip), vehicle: saline with Tween-80 95 % of control | dose: 300.0 mg/kg/injection, schedule: Q04DX003 (ip), vehicle: saline 100 % of control

O=c1[nH]nc(-c2ccncc2)s1
inactive: dose: 20.0 mg/kg/injection, schedule: Q04DX003 (ip), vehicle: saline 101 % of control | dose: 40.0 mg/kg/injection, schedule: Q04DX003 (ip), vehicle: saline 96 % of control | [4] 94 % of control | [3] 96 % of control | [5] 98 % of control

O=C(O)c1c[nH]c2c(Cl)cccc2c1=O
inactive: dose: 100.0 mg/kg/injection, schedule: Q04DX002 (ip), vehicle: Klucel (hydroxypropylcellulose) (HPC) 100 % of control | dose: 200.0 mg/kg/injection, schedule: Q04DX002 (ip), vehicle: Klucel (hydroxypropylcellulose) (HPC) 96 % of control | dose: 400.0 mg/kg/injection, schedule: Q04DX002 (ip), vehicle: Klucel (hydroxypropylcellulose) (HPC) 107 % of control

O=C(O)C1(O)C(Cl)(Cl)C(Cl)=C(Cl)C1(Cl)Cl
inactive: dose: 50.0 mg/kg/injection, schedule: Q01DX009 (ip), vehicle: saline sonified 103 % of control | dose: 50.0 mg/kg/injection, schedule: Q04DX003 (ip), vehicle: Klucel (hydroxypropylcellulose) (HPC) 92 % of control | dose: 100.0 mg/kg/injection, schedule: Q01DX009 (ip), vehicle: saline sonified 105 % of control | [6] 97 % of control and 100 % of control | [7] 111 % of control

Nc1ncnn1Cc1ccccc1
inactive: dose: 100.0 mg/kg/injection, schedule: Q01DX001 (ip), vehicle: saline 96 % of control | [5] 101 % of control | dose: 200.0 mg/kg/injection, schedule: Q01DX001 (ip), vehicle: saline 97 % of control | dose: 200.0 mg/kg/injection, schedule: Q04DX003 (ip), vehicle: saline 106 % of control | dose: 400.0 mg/kg/injection, schedule: Q01DX001 (ip), vehicle: saline 100 % of control | dose: 400.0 mg/kg/injection, schedule: Q04DX003 (ip), vehicle: saline 101 % of control

O=C(OC1c2ccccc2-c2ccccc21)c1cc([N+](=O)[O-])cc([N+](=O)[O-])c1
inactive: dose: 100.0 mg/kg/injection, schedule: Q04DX002 (ip), vehicle: saline 97 % of control | dose: 200.0 mg/kg/injection, schedule: Q04DX002 (ip), vehicle: saline 97 % of control | dose: 400.0 mg/kg/injection, schedule: Q04DX002 (ip), vehicle: saline 90 % of control

Cc1ccc(S(=O)(=O)OCC2(COS(=O)(=O)c3ccc(C)cc3)CCC2(COS(=O)(=O)c2ccc(C)cc2)COS(=O)(=O)c2ccc(C)cc2)cc1
inactive: dose: 50.0 mg/kg/injection, schedule: Q01DX009 (ip), vehicle: saline 97 % of control | [4] 93 % of control | dose: 100.0 mg/kg/injection, schedule: Q01DX009 (ip), vehicle: saline 89 % of control | [8] 96 % of control | dose: 200.0 mg/kg/injection, schedule: Q01DX009 (ip), vehicle: saline 89 % of control | dose: 300.0 mg/kg/injection, schedule: Q01DX001 (ip), vehicle: saline 93 % of control

COC1OC(C)C(O)C(O)[CH]1[Hg][O]C(C)=O (stereo not drawn)
inactive: dose: 3.12 mg/kg/injection, schedule: Q01DX009 (ip), vehicle: saline 113 % of control | dose: 5.0 mg/kg/injection, schedule: Q01DX001 (ip), vehicle: saline 110 % of control | [1] 89 % of control | dose: 6.25 mg/kg/injection, schedule: Q04DX003 (ip), vehicle: saline 102 % of control | dose: 10.0 mg/kg/injection, schedule: Q01DX001 (ip), vehicle: saline 103 % of control | [2] 106 % of control

CC(=O)Nc1ccc(N=Nc2ccccc2)cc1F
inactive: [9] 94 % of control | [6] 98 % of control | [10] 97 % of control | [7] 94 % of control | dose: 400.0 mg/kg/injection, schedule: Q01DX009 (ip), vehicle: Klucel (hydroxypropylcellulose) (HPC) 97 % of control | [11] 91 % of control

Cn1cnc2c3cccnc3ccc21
inactive: [4] 95 % of control | [8] 103 % of control

O=C(O)C(SSC(C(=O)O)(c1ccccc1)c1ccccc1)(c1ccccc1)c1ccccc1
inactive: [6] 106 % of control | [7] 102 % of control | [11] 88 % of control

CC(=O)OC(C(=O)N(c1ccccc1)c1ccccc1)c1ccccc1 (stereo not drawn)
inactive: [12] 98 % of control | [13] 95 % of control | [14] 93 % of control

Cc1ccc(S(=O)(=O)N(c2ccc(I)cc2F)S(=O)(=O)c2ccc(C)cc2)cc1
inactive: [6] 98 % of control | [7] 97 % of control | [11] 108 % of control

O=C(O)/C=C\c1cn(C2OC(CO)C(O)C(O)C2O)c2ccccc12 (stereo not drawn)
inactive: dose: 60.0 mg/kg/injection, schedule: Q01DX001 (ip), vehicle: sodium bicarbonate 105 % of control | dose: 120.0 mg/kg/injection, schedule: Q01DX001 (ip), vehicle: sodium bicarbonate 97 % of control

CC(C)(C)C1C(=O)N1C(C)(C)C (stereo not drawn)
inactive: [9] 103 % of control | [6] 101 % of control | [10] 101 % of control | [7] 97 % of control | [11] 97 % of control

C=C(Br)CNC(=O)C(=O)OCC
inactive: dose: 50.0 mg/kg/injection, schedule: Q01DX009 (ip), vehicle: saline with Tween-80 97 % of control | [12] 94 % of control | dose: 132.0 mg/kg/injection, schedule: Q04DX003 (ip), vehicle: saline with Tween-80 93 % of control | [13] 97 % of control | dose: 200.0 mg/kg/injection, schedule: Q04DX003 (ip), vehicle: saline with Tween-80 90 % of control | dose: 300.0 mg/kg/injection, schedule: Q04DX003 (ip), vehicle: saline with Tween-80 96 % of control

C/C(=N/N(C)C)c1cccs1
inactive: dose: 4.0 mg/kg/injection, schedule: Q04DX003 (sc), vehicle: olive oil, sesame oil, peanut oil 89 % of control | dose: 6.0 mg/kg/injection, schedule: Q04DX003 (sc), vehicle: olive oil, sesame oil, peanut oil 103 % of control | dose: 9.0 mg/kg/injection, schedule: Q04DX003 (sc), vehicle: olive oil, sesame oil, peanut oil 99 % of control | dose: 12.5 mg/kg/injection, schedule: Q04DX003 (sc), vehicle: olive oil, sesame oil, peanut oil 102 % of control | dose: 14.0 mg/kg/injection, schedule: Q04DX003 (sc), vehicle: olive oil, sesame oil, peanut oil 97 % of control | dose: 22.0 mg/kg/injection, schedule: Q04DX003 (sc), vehicle: olive oil, sesame oil, peanut oil 120 % of control | dose: 33.0 mg/kg/injection, schedule: Q04DX003 (sc), vehicle: olive oil, sesame oil, peanut oil 124 % of control | dose: 50.0 mg/kg/injection, schedule: Q04DX003 (sc), vehicle: olive oil, sesame oil, peanut oil 98 % of control

CC(=O)OC1CCC2(C)C(=CCC3C2CCC2(C)C(OC(=O)c4ccccc4)CCC32)C1 (stereo not drawn)
inactive: [12] 89 % of control | [13] 110 % of control | [14] 96 % of control

C[N+]1(C2CCC3CCCC2C3=O)CCCC1 (stereo not drawn)
inactive: [4] 98 % of control | [8] 106 % of control
